The record followed here is PubChem BioAssay (NCI).

Among the test systems are HOP-62 NSCLC; HT29 colon; MDA-N; NCI-H226 lung; NCI-H23 lung; NCI-H460 lung; OVCAR-5 ovarian; SNB-75 CNS; NCI-H522 lung; SR leukemia.
Holding throughout (assay): NCI anticancer screen, dose series, 48 h

Where “and” joins values, the source holds several entries; their conditions need not be identical. Equal entries are not always repeated.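 Five concentrations, 48 hours, 96-well plates. GI50 = concentration required for 50% inhibition of growth. TGI marks complete inhibition of growth.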

With `O=[N+]([O-])/C(C(Cl)=C(Cl)Cl)=C(\Nc1cccc2cccnc12)SCc1ccccc1`, the TGI in the assay on HOP-62 NSCLC is 33.6 µM; in the assay with HT29 colon, 48.5 µM; in the assay on MDA-N it was > 100 µM; in the assay on NCI-H226 lung, 48.6 µM; in the assay on NCI-H23 lung, 32.7 µM; with NCI-H460 lung, 55.3 µM. Moreover, the TGI with OVCAR-5 ovarian came to 78.9 µM; in the assay with SNB-75 CNS, 40.9 µM.

Turning to `O=C1CN2C(c3ccccc3)=NN(c3ccc([N+](=O)[O-])cc3)C2(c2ccccc2)c2cc(Cl)ccc2N1CC1CC1` (centres undefined), the TGI with HOP-62 NSCLC, in the assay on HT29 colon, in the assay with NCI-H226 lung, in the assay on NCI-H23 lung, in the assay with NCI-H460 lung and with NCI-H522 lung was > 100 µM in each case. Also, the TGI with OVCAR-5 ovarian, with SNB-75 CNS and in the assay with SR leukemia was > 100 µM throughout.

With `Cc1cc(=O)c2c([nH]1)NS(=O)(=O)NC2=O`, the TGI with HOP-62 NSCLC, in the assay with HT29 colon, in the assay on NCI-H226 lung, in the assay on NCI-H23 lung, with NCI-H522 lung and with SNB-75 CNS was > 100 µM each time. In the assay with SR leukemia, the TGI was > 100 µM.

For `BrC/C=C/C[P+](c1ccccc1)(c1ccccc1)c1ccccc1`, the TGI is 58.2 µM in the assay on HOP-62 NSCLC; > 100 µM in the assay on NCI-H23 lung; > 100 µM in the assay on NCI-H460 lung; 51.3 µM in the assay on NCI-H522 lung; > 100 µM in the assay on OVCAR-5 ovarian; 78.3 µM with SNB-75 CNS.

Regarding `CC[C@H]1CN2CCc3cc(OC)c(OC)cc3[C@@H]2C[C@@H]1C[C@H]1NCCc2cc(OC)c(OC)cc21`, the TGI in the assay with HOP-62 NSCLC was 0.216 µM and 0.221 µM; with HT29 colon, 0.242 µM and 0.168 µM; in the assay with MDA-N it was 0.0589 µM; in the assay on NCI-H226 lung, 0.164 µM and 0.476 µM; with NCI-H23 lung, 0.14 µM and 0.026 µM; with NCI-H460 lung, 0.0713 µM and 0.03 µM. Further, the TGI is 0.0392 µM and 0.0356 µM in the assay with NCI-H522 lung; 0.2 µM and 0.551 µM in the assay with OVCAR-5 ovarian.

For the compound `CC(=O)O[C@]12CCCCCC1C1(O)C(O)CCC[C@H]12` (some centres undefined), the TGI in the assay with HOP-62 NSCLC, in the assay on HT29 colon, in the assay on NCI-H226 lung, in the assay on NCI-H23 lung, in the assay on NCI-H460 lung and in the assay with SNB-75 CNS was > 100 µM throughout. For the same compound, the TGI in the assay with SR leukemia is > 100 µM.

`O=C(NC(Cc1ccc(I)cc1)C(=O)O)c1ccc(I)cc1` (centres undefined): the TGI in the assay on HOP-62 NSCLC, in the assay on HT29 colon, in the assay with NCI-H226 lung, in the assay on NCI-H23 lung, with NCI-H460 lung and in the assay with NCI-H522 lung was > 100 µM in each case. Further, the TGI in the assay on OVCAR-5 ovarian and in the assay on SNB-75 CNS was > 100 µM throughout.

Take `COC(=O)c1c2c(cc3c1CC1(C3)Cc3cc4c(c(C(=O)OC)c3C1)CCCC4)CCCC2`: the TGI in the assay on HOP-62 NSCLC, with HT29 colon, in the assay on MDA-N, in the assay on NCI-H226 lung, with NCI-H23 lung and with NCI-H522 lung was > 100 µM in each case. In the assay with OVCAR-5 ovarian, the TGI is > 100 µM.

For the compound `COCOc1ccc(Cn2c(=O)n(C)c(=O)c3c2ncn3C)cc1[N+](=O)[O-]`, the TGI with HT29 colon, with NCI-H226 lung, in the assay on NCI-H23 lung, in the assay on NCI-H460 lung, in the assay on NCI-H522 lung and in the assay on SNB-75 CNS was > 100 µM throughout. Further, in the assay on SR leukemia, the TGI was > 100 µM.

In the case of `COc1cc(C2SCC(=O)N2c2ccc(NC(=O)c3ccc(N4C(=O)CSC4c4cc(OC)c(OC)c(OC)c4)cc3)cc2)cc(OC)c1OC` (centres undefined), the TGI with HOP-62 NSCLC was > 100 µM; in the assay on HT29 colon, > 100 µM; in the assay with MDA-N, 64 µM; in the assay with NCI-H23 lung, > 100 µM; in the assay with NCI-H460 lung, > 100 µM; in the assay with NCI-H522 lung, > 100 µM. The TGI in the assay with OVCAR-5 ovarian and in the assay on SNB-75 CNS was > 100 µM throughout.

In the case of `c1ccc2c(c1)NC(C1OC3CCCN3C1C1Nc3ccccc3S1)S2` (centres undefined), the TGI with HOP-62 NSCLC, in the assay with HT29 colon, in the assay on NCI-H23 lung, in the assay on NCI-H460 lung, in the assay with NCI-H522 lung and in the assay with OVCAR-5 ovarian was > 100 µM each time. Further, the TGI in the assay with SNB-75 CNS and in the assay with SR leukemia was > 100 µM throughout.

In the case of `N#CCCN(CCC#N)c1ccc(/C=C2\N=C(c3ccccc3)N(c3ccc(Cl)cc3)C2=O)cc1`, the TGI in the assay on HOP-62 NSCLC, in the assay on HT29 colon, in the assay on MDA-N, in the assay with NCI-H226 lung, in the assay on NCI-H460 lung and in the assay on NCI-H522 lung was > 100 µM each time. The TGI with OVCAR-5 ovarian was > 100 µM.

Take `COc1cc([N+](=O)[O-])c(OC)cc1-c1nc2sc(Cl)cn2c1/C=N/Nc1ccccn1`: the GI50 with HT29 colon was > 50 µM; in the assay on NCI-H226 lung it was 12.1 µM; in the assay with NCI-H460 lung, 15.8 µM; with NCI-H522 lung it was > 50 µM; in the assay with SR leukemia, 0.0877 µM. Moreover, the TGI is > 50 µM in the assay on HT29 colon; 48.8 µM in the assay on NCI-H226 lung; > 50 µM with NCI-H460 lung; > 50 µM with NCI-H522 lung; 12.1 µM in the assay on SR leukemia.

As to `O=C(NCCN1CCOCC1)c1ccc2cc(C(=O)N3CC(CCl)c4ccc([N+](=O)[O-])cc43)[nH]c2c1` (centres undefined), the TGI is 30.8 µM in the assay on HOP-62 NSCLC; 24.7 µM in the assay on HT29 colon; > 100 µM in the assay on NCI-H226 lung; > 100 µM with NCI-H23 lung; 26.1 µM with NCI-H460 lung; 39.7 µM in the assay on NCI-H522 lung. The TGI in the assay on OVCAR-5 ovarian was > 100 µM.

Turning to `O=C(NCCCN(CCCCN(CCCNC(=O)C(F)(F)F)Cc1ccccc1)Cc1ccccc1)C(F)(F)F`, the TGI in the assay on HT29 colon was 19.2 µM; in the assay with MDA-N, 29.1 µM; in the assay with NCI-H226 lung, 34.4 µM; in the assay on NCI-H23 lung, 30.9 µM; with NCI-H460 lung it was 22.1 µM; in the assay with NCI-H522 lung, 22.3 µM. Further, the TGI in the assay with OVCAR-5 ovarian was 40.8 µM; in the assay on SNB-75 CNS, 27.9 µM.

`CC(C(=O)n1nnc2ccccc21)N(c1ccccc1)c1ccccc1` (centres undefined): the TGI in the assay with HOP-62 NSCLC, with HT29 colon, in the assay with NCI-H226 lung, in the assay on NCI-H23 lung, in the assay with NCI-H460 lung and in the assay on NCI-H522 lung was > 100 µM throughout. For the same compound, the TGI with OVCAR-5 ovarian, in the assay on SNB-75 CNS and in the assay on SR leukemia was > 100 µM each time.
